Counter-ions that a name gives are not always drawn.

The data set is described as follows: in vitro. The following applies: human, hek293t cells.
Usually viability stands for a read-out of living cells in per cent, often relative to untreated cells. Turning to `O=C(CCl)NC1CCN(Cc2ccccc2)C1` (stereo not drawn) [6-G18, N-(1-benzylpyrrolidin-3-yl)-2-chloroacetamide hydrochloride], the viability at 48 h, 25 µM came out at 3.85%. As for `O=C(CCl)NC1CCC(c2nc(-c3ccccc3)n[nH]2)CC1` (stereo not drawn) [6-G19, 2-chloro-N-[4-(3-phenyl-1H-1,2,4-triazol-5-yl)cyclohexyl]acetamide], the viability at 48 h, 25 µM was 39.3%. The same measure for `O=C(CCl)N[C@H](CO)Cc1ccccc1` [6-G20, 2-chloro-N-[(2S)-1-hydroxy-3-phenylpropan-2-yl]acetamide]: 81.9%; for `C[C@@H](NC(=O)CCl)c1ccc(F)cc1` [6-G21, 2-chloro-N-[(1R)-1-(4-fluorophenyl)ethyl]acetamide]: 129%; for `O=C(CCl)NCCc1cnn(-c2ccccc2)c1` [6-G22, 2-chloro-N-[2-(1-phenyl-1H-pyrazol-4-yl)ethyl]acetamide]: 1.31%. With `O=C(CCl)Nc1cc(S(=O)(=O)N2CCOCC2)ccc1Cl` [6-H03, 2-chloro-N-[2-chloro-5-(morpholine-4-sulfonyl)phenyl]acetamide], the viability at 48 h, 25 µM came out at 1.8%. The result for `O=C(CCl)NCCS(=O)(=O)N1CCc2ccccc21` [6-H04, 2-chloro-N-[2-(2,3-dihydro-1H-indole-1-sulfonyl)ethyl]acetamide] reads 14.1%; that for `CC1CCCN(C(=O)C(NC(=O)CCl)c2cnn(C)c2)C1` (stereo not drawn) [6-H05, 2-chloro-N-[1-(1-methyl-1H-pyrazol-4-yl)-2-(3-methylpiperidin-1-yl)-2-oxoethyl]acetamide], 104%; that for `O=C(CCl)N(Cc1ccc(Cl)c([N+](=O)[O-])c1)c1ccccc1` [6-H06, 2-chloro-N-[(4-chloro-3-nitrophenyl)methyl]-N-phenylacetamide], 0.976%. On to `Cc1ccc2[nH]c3c(c2c1)CCCC3N(C)C(=O)CCl` (stereo not drawn) [6-H07, 2-chloro-N-methyl-N-(6-methyl-2,3,4,9-tetrahydro-1H-carbazol-1-yl)acetamide], for which the viability at 48 h, 25 µM turned out to be 0.1%. Take `O=C(CCl)NCc1cc(C(F)F)no1` [6-H08, 2-chloro-N-{[3-(difluoromethyl)-1,2-oxazol-5-yl]methyl}acetamide]: the viability at 48 h, 25 µM worked out at 5.77%.

As to `CC(Cl)C(=O)N1CCCC(n2ncc(N(C)C(C)C)cc2=O)C1` (stereo not drawn) [6-H09, 2-[1-(2-chloropropanoyl)piperidin-3-yl]-5-[methyl(propan-2-yl)amino]-2,3-dihydropyridazin-3-one], the viability at 48 h, 25 µM came to 97.3%.

For the compound `CC(Cl)C(=O)Nc1ccccc1Sc1ccccc1` (stereo not drawn) [6-H10, 2-chloro-N-[2-(phenylsulfanyl)phenyl]propanamide], the viability at 48 h, 25 µM turned out to be 116%. Regarding `CN(CCNC(=O)CCl)S(=O)(=O)c1cccs1` [6-H11, 2-chloro-N-[2-(N-methylthiophene-2-sulfonamido)ethyl]acetamide], the viability at 48 h, 25 µM was 11.1%. Consider `CN(C)S(=O)(=O)c1ccc(Cl)c(NC(=O)CCl)c1` [6-H12, 2-chloro-N-[2-chloro-5-(dimethylsulfamoyl)phenyl]acetamide], for which the viability at 48 h, 25 µM was 0.99%. In the case of `CC(Cl)C(=O)NC(C)c1nnc2n1CCCC2` (stereo not drawn) [6-H13, 2-chloro-N-(1-{5H,6H,7H,8H-[1,2,4]triazolo[4,3-a]pyridin-3-yl}ethyl)propanamide], the viability at 48 h, 25 µM is 105%.

On to `CC(Cl)C(=O)NCc1cc(C(F)F)nn1C` (stereo not drawn) [6-H14, 2-chloro-N-{[3-(difluoromethyl)-1-methyl-1H-pyrazol-5-yl]methyl}propanamide], for which the viability at 48 h, 25 µM is 108%.

`Cc1nsc(N2CCN(C(=O)C(C)Cl)CC2)c1C#N` (stereo not drawn) [6-H15, 5-[4-(2-chloropropanoyl)piperazin-1-yl]-3-methyl-1,2-thiazole-4-carbonitrile]: the viability at 48 h, 25 µM amounted to 91.4%. Regarding `CCc1ccc(OC(C)C(=O)N2CCN(C(=O)C(C)Cl)CC2)cc1` (stereo not drawn) [6-H16, 1-[4-(2-chloropropanoyl)piperazin-1-yl]-2-(4-ethylphenoxy)propan-1-one], the viability at 48 h, 25 µM was determined as 105%. For the compound `CC(Cl)C(=O)N1CCN(CCOc2ccc3c(c2)CCC3)CC1` (stereo not drawn) [6-H17, 2-chloro-1-{4-[2-(2,3-dihydro-1H-inden-5-yloxy)ethyl]piperazin-1-yl}propan-1-one], the viability at 48 h, 25 µM stood at 3.42%. The same measure for `CC1CC(c2ccccc2F)N(C(=O)C(C)Cl)C1` (stereo not drawn) [6-H18, 2-chloro-1-[2-(2-fluorophenyl)-4-methylpyrrolidin-1-yl]propan-1-one]: 116%; for `CC(Cl)C(=O)N1Cc2ccccc2OC(C)(C)C1` (stereo not drawn) [6-H19, 2-chloro-1-(2,2-dimethyl-2,3,4,5-tetrahydro-1,4-benzoxazepin-4-yl)propan-1-one]: 91%.

For `CC(Cl)C(=O)NCC1c2ccccc2C(=O)N1Cc1ccccc1` (stereo not drawn) [6-H20, N-[(2-benzyl-3-oxo-2,3-dihydro-1H-isoindol-1-yl)methyl]-2-chloropropanamide], the viability at 48 h, 25 µM is 107%. `CC(Cl)C(=O)NC1CCC(C)(C)c2ccccc21` (stereo not drawn) [6-H21, 2-chloro-N-(4,4-dimethyl-1,2,3,4-tetrahydronaphthalen-1-yl)propanamide]: the viability at 48 h, 25 µM turned out to be 100%. The result for `CC(Cl)C(=O)N1CCOCC(n2cccn2)C1` (stereo not drawn) [6-H22, 2-chloro-1-[6-(1H-pyrazol-1-yl)-1,4-oxazepan-4-yl]propan-1-one] reads 105%; that for `COc1cccc(NC(=O)C(C)Cl)c1` (stereo not drawn) [6-I03, 2-chloro-N-(3-methoxyphenyl)propanamide], 105%.

Consider `CC(Cl)C(=O)NCc1ccc(Cl)cc1` (stereo not drawn) [6-I04, 2-chloro-N-[(4-chlorophenyl)methyl]propanamide], for which the viability at 48 h, 25 µM came out at 107%. `Cc1ccc2nc(-c3ccc(NC(=O)CCl)cc3)sc2c1` [6-I05, 2-chloro-N-[4-(6-methyl-1,3-benzothiazol-2-yl)phenyl]acetamide]: the viability at 48 h, 25 µM came out at 3.47%. On to `COC(=O)C1(NC(=O)CCl)CC1` [6-I06, methyl 1-(2-chloroacetamido)cyclopropane-1-carboxylate], for which the viability at 48 h, 25 µM is 101%. Take `O=C(CCl)NCC1(c2ccccc2)CCOCC1` [6-I07, 2-chloro-N-[(4-phenyloxan-4-yl)methyl]acetamide]: the viability at 48 h, 25 µM worked out at 89.3%. Turning to `Cc1nn(-c2ccccc2)c(C)c1CNC(=O)CCl` [6-I08, 2-chloro-N-[(3,5-dimethyl-1-phenyl-1H-pyrazol-4-yl)methyl]acetamide], the viability at 48 h, 25 µM is 2.35%. Consider `N#Cc1c(NC(=O)CCl)oc(-c2cccs2)c1-c1cccs1` [6-I09, 2-chloro-N-[3-cyano-4,5-bis(thiophen-2-yl)furan-2-yl]acetamide], for which the viability at 48 h, 25 µM amounted to 28.5%. The result for `Cc1c(Cl)cccc1NC(=O)C(C)Cl` (stereo not drawn) [6-I10, 2-chloro-N-(3-chloro-2-methylphenyl)propanamide] reads 110%. The same measure for `CCOC(=O)c1c(NC(=O)CCl)sc2c1CCCC2` [6-I11, ethyl 2-(2-chloroacetamido)-4,5,6,7-tetrahydro-1-benzothiophene-3-carboxylate]: 44.9%; for `N#CCCN(C(=O)CCl)c1ccccc1` [6-I12, 2-chloro-N-(2-cyanoethyl)-N-phenylacetamide]: 1.62%; for `CC(Cl)C(=O)N(C)Cc1ccccc1` (stereo not drawn) [6-I13, N-benzyl-2-chloro-N-methylpropanamide]: 105%. `CC(Cl)C(=O)Nc1cc([N+](=O)[O-])ccc1Cl` (stereo not drawn) [6-I14, 2-chloro-N-(2-chloro-5-nitrophenyl)propanamide]: the viability at 48 h, 25 µM came to 117%.

`CCn1cc(NC(=O)CCl)cn1` [6-I15, 2-chloro-N-(1-ethyl-1H-pyrazol-4-yl)acetamide hydrochloride]: the viability at 48 h, 25 µM came out at 10.5%. For `CC(C)c1ccc(CCNC(=O)CCl)cc1` [6-I16, 2-chloro-N-{2-[4-(propan-2-yl)phenyl]ethyl}acetamide], the viability at 48 h, 25 µM came to 71%.

For `CC(C)N(c1ccccc1)c1ccc(NC(=O)CCl)cc1` [6-I17, 2-chloro-N-{4-[phenyl(propan-2-yl)amino]phenyl}acetamide], the viability at 48 h, 25 µM was 0.67%. The result for `CC(Cl)C(=O)Nc1ncnc2[nH]cnc12` (stereo not drawn) [6-I18, 2-chloro-N-(9H-purin-6-yl)propanamide] reads 100%; that for `CC(C)C(NC(=O)CCl)c1ccc(F)c(C#N)c1` (stereo not drawn) [6-I19, 2-chloro-N-[1-(3-cyano-4-fluorophenyl)-2-methylpropyl]acetamide], 1.83%; that for `O=C(CCl)Nc1oncc1-c1ccccc1` [6-I20, 2-chloro-N-(4-phenyl-1,2-oxazol-5-yl)acetamide], 1.45%. Consider `O=C(CCl)N[C@H]1CCCc2ccccc21` [6-I21, 2-chloro-N-[(1S)-1,2,3,4-tetrahydronaphthalen-1-yl]acetamide], for which the viability at 48 h, 25 µM came to 24%. Regarding `CCCc1ccc(NC(=O)CCl)cc1` [6-I22, 2-chloro-N-(4-propylphenyl)acetamide], the viability at 48 h, 25 µM turned out to be 0.417%. For `O=C(CCl)NCc1cnn(-c2ccccc2)n1` [6-J03, 2-chloro-N-[(2-phenyl-2H-1,2,3-triazol-4-yl)methyl]acetamide], the viability at 48 h, 25 µM was found to be 1.68%.

`Cc1ccc(NC(=O)NC(=O)C(C)Cl)c(C)c1` (stereo not drawn) [6-J04, 3-(2-chloropropanoyl)-1-(2,4-dimethylphenyl)urea]: the viability at 48 h, 25 µM was 96.6%. As for `Cc1cccc(CN(C(=O)CCl)C(C)C)c1` [6-J05, 2-chloro-N-[(3-methylphenyl)methyl]-N-(propan-2-yl)acetamide], the viability at 48 h, 25 µM was 0.679%.

Turning to `COc1ccccc1N=Nc1ccc(NC(=O)CCl)cc1C` [6-J06, 2-chloro-N-{4-[2-(2-methoxyphenyl)diazen-1-yl]-3-methylphenyl}acetamide], the viability at 48 h, 25 µM was 0.765%. The same measure for `CC(=O)N(Cc1ncc(C(C)C)o1)C1CCN(C(=O)C(C)Cl)C1` (stereo not drawn) [6-J07, N-[1-(2-chloropropanoyl)pyrrolidin-3-yl]-N-{[5-(propan-2-yl)-1,3-oxazol-2-yl]methyl}acetamide]: 103%; for `CC(Cl)C(=O)Nc1ccccc1OC(F)F` (stereo not drawn) [6-J08, 2-chloro-N-[2-(difluoromethoxy)phenyl]propanamide]: 115%.

(Values after publication PMC11995724, “Antibiotic target discovery by integrated phenotypic and activity-based profiling of electrophilic fragments” (Cell chemical biology, 2025).)
